# According to patent publication US7608640B2, “Glycine betaine and its use” (priority 2001, dated 2009):
# Values joined by “and” are separate entries in the source; they are usually repeats but may differ in a detail not shown here. Equal entries are not always repeated.
# How the values were obtained:
# blood cells = test: Blood cell counts; assay type: in vivo, rat; settings: rat; glycine betaine 5 mg/kg, acetylsalicylic acid 100 mg/kg, heparin 2 mg/kg
# [1] = Azure A method, in vitro binding of betaine to heparin
# Protocol: This experiment utilized stock solutions of azure A, heparin, betaine, and a betaine-heparin combination in order to determine in vitro binding of betaine to Heparin. The stock solution of azure A was prepared at 4×10^−5 mol L^−1 by solubilizing 58.35 mg azure A in 50 ml of sterile injectable water. Next, 10 ml of this solution was diluted in 90 ml of sterile injectable water. The resulting solution was diluted again by taking 10 ml of this solution and diluting it in 90 ml of sterile injectable water. Finally, the resulting solution is filtered on Watman paper and aliquots of 4 ml are realized. The stock solution of Heparin was prepared by diluting the manufacturer-supplied stock solution (5000 UI/ml having ±150 UI/mg), (LEO Pharma, Ballerup, Denmark). One ml of this supplied solution was diluted in 499 ml of sterile injectable water in order to obtain a 10 UI/ml in final concentration. The betaine stock solution was prepared by diluting betaine in sterile injectable water in order to obtain a final concentration of 10 mg/ml. The Heparin-betaine combination stock solution was prepared by mixing 12 ml of the betaine stock solution prepared as noted above with 14.4 ml of the manufacturer-supplied Heparin stock solution (corresponding to 120 mg of betaine and 480 mg Heparin). This mixture was agitated for 2 minutes while mixing and then incubated for 10 minutes at 20° C. The final combination solution is then prepared by taking 1 ml of the solution after incubation and diluting it in 499 ml of sterile injectable water.
# Each stock solution was then tested at six dilutions for its effect on heparin binding to azure A dye. The first dilution consisted of 0 μl solution, 400 μl water and 4 ml azure A solution. The second dilution consisted of 80 μl solution, 320 μl water and 4 ml azure A solution. The third dilution consisted of 160 μl solution, 240 μl water and 4 ml azure A solution. The fourth dilution consisted of 240 μl solution, 160 μl water and 4 ml azure A solution. The fifth dilution consisted of 320 μl solution, 80 μl water and 4 ml azure A solution. The sixth dilution consisted of 400 μl solution, 0 μl water and 4 ml azure A solution. Each dilution was then subjected to the azure A method which is a rapid and simple spectrophotometric method for determining heparin concentration following the formation of a soluble complex between heparin and azure A dye. Chemically, azure A is formed by 3 benzene nuclei and a terminal N^+. This soluble complex changes the typically blue color of the azure dye to purple. The principle of the test is based on the spectrophotometric absorption of the heparin/azure A dye complex at 632 nm. Heparin binding to azure A results in lowered absorbance and the solution gradually turns deeper purple as heparin concentration increases. In the presence of a substance which binds to heparin (e.g., protamine), azure A retains its blue color and absorbance remains constant. The results of this test are provided in the following table which illustrates that no significant change in the absorbance of azure A occurs when betaine is combined with heparin. However, Heparin alone has a significant effect on azure A absorption.
# bleeding time in rats = test: Induced haemorrhagic (bleeding) time, tail cut; assay type: in vivo, rat; settings: for B.T.C. (bleeding time caused): 5 mg/ml/kg; for Provoked haemorrhage: after 24 hours; for Induced haemorrhage: oral 50 mg/kg; for Bleeding time: rat, glycine betaine 5 mg/kg, acetylsalicylic acid 100 mg/kg, heparin 2 mg/kg
# Protocol: Induced Haemorrahgic Time IHT
# (E. Dejana. Bleeding time in rats. Thrombosis. Rech. 1982) Blood samples are made before the test. The tail of anaesthetised rat, is dipped for 5 minutes in a water bath at 37° C. so as to provoke a dilatation of the peripheral vessels which are removed and cut at the end, the chronometer being started. The IHT is defined as being the time period comprised between the cutting of end tail and the end of the haemorrhage or bleeding. The end of haemorrhage is defined as the time where the last drop of blood is removed from the tail and no other drop is seen for 180 seconds. […]
# coagulation factors = test: Biological balance (Quick time, ACT, fibrinogen, α2AP, AT III); assay type: in vivo, rat
# [2] = system: coagulation (Fibrinogen, APTT, Prothrombin Time, Anti-Xa activity); test: Plasma fibrinogen, APTT, prothrombin time and anti-Xa in heparinized rat; assay type: in vivo; settings: Example 37
# Excerpt: This example investigated the effect of delayed betaine administration in an antidote type administration inhibited the bleeding time and volume of blood loss induced by heparin treatment in a rat. Twenty male Wistar rats were purchased from Charles River, France and were acclimated for one week prior to the tests. Each rat was weighed prior to testing (weights ranged from 240-340 g with a mean weight of 275 g) and divided into 2 groups of 10 animals each. One group received an injection of heparin (5 mg/kg) at T0. The second group received a heparin injection (5 mg/kg) at T0, and a betaine injection (10 mg/kg) at T0+30 minutes. Both groups were subjected to a bleeding test at T0+60 minutes. The testing was performed using the previously described methodology with slight modifications. The tails were sectioned at 5-8 mm from the extremity. After transection, the proximal end of the tail was placed in a tube and blood was permitted to drip freely into a reservoir of 3.8% citrate solution (1 ml) until bleeding stopped. Blood loss volumes were then determined using a 1000 μl pipette. At the end of the experiments, before euthanasia, blood was sampled by intracardiac puncture on Na-citrate (3.8%, 1:9) and centrifuged at 4000 rpm/min for 20 minutes in order to obtain Poor Platelet Plasma (PPP). Fibrinogen, APTT, Prothrombin Time (Quick) and Anti-Xa activity were determined using an Automatic Coagulation Laboratory ACL 200 (Instrumentation Laboratory, France). […] Betaine efficiency to reduce bleeding times was confirmed. The effect on the haemorrhage was also confirmed since there was a very significant reduction of the blood loss volumes when compared to the heparin group. The delayed administration of betaine after heparin treatment, designed to mimic an antidote mode of administration, almost restored the bleeding times and the volumes of blood loss in the 10 betaine-treated animals to normal.
# [3] = Heparin UI/ml (reference) 2, second dilution, 80 μl stock solution
# [4] = Heparin UI/ml (reference) 4, third dilution, 160 μl stock solution
# [5] = Heparin UI/ml (reference) 6, fourth dilution, 240 μl stock solution
# [6] = Heparin UI/ml (reference) 8, fifth dilution, 320 μl stock solution
# [7] = Heparin UI/ml (reference) 10, sixth dilution, 400 μl stock solution
# [8] = 5 mg/kg/day, repeated administration on 5 days of treatment
# [9] = rat, glycine betaine 5 mg/kg, acetylsalicylic acid 100 mg/kg, heparin 2 mg/kg
# [10] = betaine 10 mg/kg 30 minutes after heparin 5 mg/kg
# [11] = heparin 5 mg/kg at T0, betaine 10 mg/kg at T0+30 minutes
compound,measurement,setting,value
C[N+](C)(C)CC(=O)O [Glycine betaine],Number of platelets,blood cells,804.67 ± 20.03 10^9
same,Number of red corpuscles,blood cells,6.19 ± 0.25 10^12
same,Number of white corpuscles,blood cells,4.43 ± 0.32 10^9
same,Absorbance of azure A at 632 nm,[1]; [3],1.241
same,Absorbance of azure A at 632 nm,[1]; [4],1.213
same,Absorbance of azure A at 632 nm,[1]; [5],1.1937
same,Absorbance of azure A at 632 nm,[1]; [6],1.1612
same,Absorbance of azure A at 632 nm,[1]; [7],1.154
same,B.T.C. (bleeding time caused),bleeding time in rats; Group I: injected 1 hour before the experiment,105 ± 26.2 s
same,B.T.C. (bleeding time caused),bleeding time in rats; Group II: injected 2 hours before the experiment,145 ± 15.52 s
same,B.T.C. (bleeding time caused),bleeding time in rats; Group III: injected 3 hours before the experiment,115.5 ± 14.2 s
same,B.T.C. (bleeding time caused),bleeding time in rats; Group IV: injected 4 hours before the experiment,120 ± 10.13 s
same,Provoked Haemorrhage time,bleeding time in rats; 10 mg/kg subcutaneous,105 s
same,Provoked haemorrhage,bleeding time in rats; 10 mg/kg subcutaneous,114 ± 12.76 s
same,Provoked haemorrhage,bleeding time in rats; 20 mg/kg subcutaneous,110 ± 13.22 s
same,Provoked Haemorrhage time,bleeding time in rats; 30 mg/kg subcutaneous,112 s
same,Provoked Haemorrhage time,bleeding time in rats; 50 mg/kg subcutaneous,115 s
same,Induced haemorrhage,bleeding time in rats; 1 hour,120 ± 5 s
same,Induced haemorrhage,bleeding time in rats; 6 hours,111 ± 3.6 s
same,Induced haemorrhage,bleeding time in rats; 24 hours,113.33 ± 18.92 s
same,Induced haemorrhage,bleeding time in rats; 48 hours,109 ± 8.54 s
same,Bleeding time,bleeding time in rats,95 ± 5 s
same,ACT,coagulation factors; [8],39.3 ± 2.3 s
same,Fibrinogen,coagulation factors; [8],2.2 ± 0.1 g/L
same,Quick time,coagulation factors; [8],19.8 ± 1.2 s
same,ACT (Activated cephaline time),coagulation factors; [9],39.9 ± 1.05 s
same,AT III (Antithrombin III),coagulation factors; [9],89.5 ± 1.37%
same,Fibrinogen,coagulation factors; [9],1.7 ± 0.1 g/L
same,QT (Quick time),coagulation factors; [9],16.9 ± 1.05 s
same,"α2AP (Alpha,2-antiplasmin)",coagulation factors; [9],29.7 ± 0.68%
same,APTT prolongation despite betaine administration,[2]; [10],up to 6 ×
same,Animals with normalized Prothrombin times,[2]; [10],8 out of 10
same,Fibrinogen level change versus heparin,[2]; [10],−10%
same,Fibrinogen level change versus the control,[2]; [10],−23%
same,"Reduction of Anti-Xa activity, antidote group compared to the heparin group",[2]; [10],74%
Heparin,Number of platelets,blood cells,777.33 ± 6.43 10^9
same,Number of red corpuscles,blood cells,6.20 ± 0.20 10^12
same,Number of white corpuscles,blood cells,5.80 ± 0.10 10^9
same,Absorbance of azure A at 632 nm,[1]; [3],1.0608
same,Absorbance of azure A at 632 nm,[1]; [4],0.8399
same,Absorbance of azure A at 632 nm,[1]; [5],0.5797
same,Absorbance of azure A at 632 nm,[1]; [6],0.358
same,Absorbance of azure A at 632 nm,[1]; [7],0.205
same,Bleeding time,bleeding time in rats,313.33 ± 20 s
same,ACT (Activated cephaline time),coagulation factors; [9],39.46 ± 1.36 s
same,AT III (Antithrombin III),coagulation factors; [9],77.66 ± 1.52%
same,Fibrinogen,coagulation factors; [9],2.13 ± 0.25 g/L
same,QT (Quick time),coagulation factors; [9],29.50 ± 0.52 s
same,"α2AP (Alpha,2-antiplasmin)",coagulation factors; [9],29.4 ± 1.01%
same,"APTT, Mean",[2]; [11],>180 s
same,"APTT, individual rats",[2]; [11],>180 s
same,"Anti-Xa, Mean",[2]; [11],1.37 IU/ml
same,"Anti-Xa, individual rats",[2]; [11],1.35 IU/ml (2×) and 1.38 IU/ml (2×) and 1.37 IU/ml (2×) and 1.34 IU/ml and 1.41 IU/ml and 1.39 IU/ml (2×)
same,"Fibrinogen, Mean",[2]; [11],1.82 g/L
same,"Fibrinogen, individual rats",[2]; [11],2.15 g/L and 1.77 g/L and 2.1 g/L and 1.53 g/L and 1.62 g/L and 2.0 g/L and 1.55 g/L and 1.67 g/L and 1.57 g/L and 2.2 g/L
same,"Quick (Prothrombin Time), Mean",[2]; [11],61.07 s
same,"Quick (Prothrombin Time), individual rats",[2]; [11],52.3 s and 57.4 s and 55.3 s and 66.2 s and 66.0 s and 59.6 s and 64.6 s and 67.2 s and 62.2 s and 59.9 s
